Results published in EP4324461A1, “(E)-N-CINAMOYLAMINOALKANOLES WITH MELANOGENESIS INHIBITORY ACTIVITY” (UNIWERSYTET JAGIELLONSKI, priority 2022, dated 2024).
Where two headings read alike, the source gives them in different places.

Legend:
[1] = Lipophilicity coefficient RM0 by reversed phase thin layer chromatography; assay type: physicochemical; details: RP-18 TLC, methanol / 100 mM phosphate buffer pH = 7.4
Description: Confirmation of the identity and purity of the obtained compounds consisted in the registration and interpretation of ^1H NMR and ^13C NMR spectra (the spectra were recorded using an ECZR 500 MHz (JEOL) series FT-NMR spectrophotometer), as well as the registration and interpretation of LC-MS spectra (the spectra were recorded using Acquita UPLC system (Waters) coupled with a Waters TQD mass spectrometer). The melting point was measured using the open capillary method in the IA9300 device (Electrothermal). The lipophilicity coefficient RM0 was determined by reversed phase thin layer chromatography. In the study, aluminum plates 20x20 cm covered with modified silica gel RP-18 F254 (Merck) were used as the solid phase. The mobile phase consisted of solutions of methanol and 100 mM phosphate buffer (pH = 7.4), characterized by a variable methanol content ranging from 95 to 65% (v/v). The tested compounds were dissolved in methanol to obtain solutions with a concentration of 1 mg/mL. Then, 5 µL of the solutions prepared in this way were transferred to the starting line on aluminum plates, which were then placed in chromatographic chambers previously saturated with mobile phase vapors for at least 1 hour. All activities, including the development of chromatograms, were carried out at room temperature. After developing the chromatograms to approximately 1-2 cm from the end of the plate, the plates were dried and then the distance traveled by the tested compounds was visualized under UV light (λ = 254 nm). The experiment was performed in duplicate for the specified conditions. For all samples, Rf was calculated according to the formula Rf = a/b, where a - the distance traveled by the tested compound, b - the distance traveled by the mobile phase. Then, the RM parameter was calculated for all samples according to the formula RM = log(1/Rf - 1), obtaining a linear relationship between the RM values and the methanol concentration in the mobile phase. The logP coefficient was also calculated using the following computer programs: ACD/ChemSketch 2020.1.2 and ChemDraw 20.0.0.41. Table 2. The physicochemical data of the compounds are presented below

S. typhimurium TA1535 = assay: Ames microplate test, TA1535;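 also: bacteria exposed to compound 90 min at 37 °C, then kept 48 h at 37 °C with indicator medium in 384-well plates, scoring wells that turned yellow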
Description: (§3) The study used the Ames microplate test (Ames MPF™ Penta 2 by Xenometrix, Allschwil, Switzerland). Growth medium, exposure medium, indicator medium, positive controls, hepatic microsomal fraction, NADP, glucose-6-phosphate, Salmonella typhimurium and Escherichia coli strains were components of the purchased experimental kit. Bacteria were grown overnight in growth medium. They were then exposed to the test compound at the appropriate concentration in exposure medium without or with the rat microsomal fraction S9 in 24-well plates for 90 min at 37 °C with shaking. Then, indicator medium was added to the wells and pipetted into 384-well plates, which were incubated for 48 hours at 37 °C without shaking. Results were assessed by counting the wells in which the medium turned yellow for each experimental condition.

[2] = test system: Chinese hamster ovary cell line (CHO-K1); assay: Genotoxicity in the micronucleus test in CHO-K1 cells; assay type: cell-based
S. typhimurium TA1537 = assay: Ames microplate test, TA1537; assay type: cell-based, Salmonella typhimurium;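 also: reference level is the mean solvent-control yellow wells plus SD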
Description: (§1) Bacteria were grown overnight in growth medium.
(§2) Table 9. Ames microplate test results.

tyrosinase from mushroom = assay: Inhibition of commercial mushroom tyrosinase (L-DOPA or L-tyrosine substrate); assay type: biochemical
Description: The following substrates were used for the enzymatic reaction: L-tyrosine and L-3,4-dihyroxyphenylalanine (L-DOPA). Both substrates were used in independent experiments. According to the literature, the use of L-DOPA enables the assessment of tyrosinase diphenolase activity, and L-tyrosine - the tyrosinase monophenolase activity. The determinations were performed in 96-well plates, in each well there was placed: 170 µL or 127.5 µL of 50 mM phosphate buffer (pH = 6.8) with tyrosinase (1U/well or 3U/well) and 10 µL of a solution of the tested compound in DMSO (the final concentration in the well was 500 µM, 250 µM or 125 µM). The negative control used 10 µL of pure solvent (DMSO). To initiate the reaction, an appropriate substrate was added: L-tyrosine (62.5 µL of solution in phosphate buffer) or L-DOPA (20 µL of solution in phosphate buffer). After a 25-minute incubation, the absorbance was measured at 475 nm using a microplate reader. The percentage of inhibition of tyrosinase activity was calculated using the formula: [(AC -AT)/AC] × 100, where AC - is the absorbance of the negative control, AT - is the absorbance of the sample containing the tested compound.

S. typhimurium TA100 = assay: Ames microplate test, TA100; assay type: cell-based, Salmonella typhimurium;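 also: reference level is the mean solvent-control yellow wells plus SD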
Description: as §1, §2

[3] = test system: B16-F10 murine melanoma cell line; assay: Cytotoxicity in B16-F10 cells (MTT); assay type: cell-based; details: 48 h
Description: In order to determine safe doses of compounds for testing the inhibition of melanogenesis in a murine melanoma cell line, cytotoxicity tests were performed. Cytotoxicity was determined by the colorimetric method using MTT ([3-(4,5-dimethyl-2-thiazolyl)-2,5-diphenyl-2H-tetrazolium bromide, Sigma M5655). For this purpose, cells were transferred to 96-well plates in an amount of 5000/well. After 24 h of culture in an incubator in F 10-Ham medium with 1% FBS, the tested compounds at various concentrations were added to the wells together with fresh medium. DMSO was added to the medium in a negative control. The MTT test was performed after further culture for 48 h. Then the medium was removed and the formed formazan crystals were dissolved in DMSO. The absorbance was measured at 570 nm in a plate reader and the result was compared to the control (DMSO), which was 100%. The percentage of viability was calculated using the formula: [AT/AC^∗100], where AT is the absorbance of the test sample, AC - absorbance of the control sample. Table 3. Results of inhibiting the activity of monophenolase […] tyrosinase and cytotoxicity testing in B16F10 cells for the described compounds.

S. typhimurium TA98 = assay: Ames microplate test, TA98; assay type: cell-based, Salmonella typhimurium;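 also: reference level is the mean solvent-control yellow wells plus SD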
Description: as §1, §2

E. coli WP2 = assay: Ames microplate test, E. coli WP2;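 also: bacteria treated 90 min at 37 °C in 24-well plates, then indicator medium dispensed to 384-well plates and incubated 48 h before yellow-well counting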
Description: as §3

[4] = test system: Chinese hamster ovary cell line (CHO-K1); assay: Cytotoxicity in CHO-K1 cells (MTT) before the micronucleus test; assay type: cell-based; details: 24 hours
Description: The assay was performed using a Chinese hamster ovary cell line (CHO-K1) purchased from the American Type Culture Collection (ATCC). The cells were cultured in F-12K medium with the addition of 10% fetal bovine serum (FBS) and antibiotics (streptomycin/penicillin) in an incubator at 37 °C and 5% CO2 concentration). Before the actual micronucleus test, a cytotoxicity assessment was performed to ensure that the actual test was performed only at safe concentrations. For this purpose, cells were transferred to 96-well plates and incubated with the tested compounds for 24 hours. After this time, the MTT test was performed and cell viability was assessed in comparison to the control group (cells cultured with DMSO at the same concentration as in the case of the tested samples).

Compound: CCC(O)CNC(=O)/C=C/c1ccc(Cl)cc1 (centres unmarked) [Compound A-67, (2E)-3-(4-chlorophenyl)-N-(2-hydroxybutyl)prop-2-enamide]
- RM0 [1]: 2.46
- Increase in the number of yellow wells compared to the reference level (S. typhimurium TA1535; 0.5 mM, +S9): 0.27
- Increase in the number of yellow wells compared to the reference level (S. typhimurium TA1535; 0.5 mM, without S9): 0.30
- Increase in the number of yellow wells compared to the reference level (S. typhimurium TA1535; 1.0 mM, +S9): 0.54
- Increase in the number of yellow wells compared to the reference level (S. typhimurium TA1535; 1.0 mM, without S9): 0.45
- Increase in the number of yellow wells compared to the reference level (S. typhimurium TA1535; 2.0 mM, +S9): 0.13
- Increase in the number of yellow wells compared to the reference level (S. typhimurium TA1535; 2.0 mM, without S9): 1.04
- DB (dicentric bridges in 1000 binucleate cells) ([2]; 100 µM): 3.3 ± 0.6
- MN (number of micronuclei in 1000 binucleate cells) ([2]; 100 µM): 12.0 ± 5.7
- NB (nuclear buds in 1000 binucleate cells) ([2]; 100 µM): 5.0 ± 2.8
- NDI (nuclear division index) ([2]; 100 µM): 1.58
- DB (dicentric bridges in 1000 binucleate cells) ([2]; 150 µM): 2.3 ± 0.6
- MN (number of micronuclei in 1000 binucleate cells) ([2]; 150 µM): 8.0 ± 2.8
- NB (nuclear buds in 1000 binucleate cells) ([2]; 150 µM): 5.5 ± 2.1
- NDI (nuclear division index) ([2]; 150 µM): 1.62
- DB (dicentric bridges in 1000 binucleate cells) ([2]; 200 µM): 3.0 ± 2.8
- MN (number of micronuclei in 1000 binucleate cells) ([2]; 200 µM): 6.5 ± 2.1
- NB (nuclear buds in 1000 binucleate cells) ([2]; 200 µM): 5.5 ± 0.7
- NDI (nuclear division index) ([2]; 200 µM): 1.62
- Increase in the number of yellow wells compared to the reference level (S. typhimurium TA1537; 0.5 mM, +S9): 1.00
- Increase in the number of yellow wells compared to the reference level (S. typhimurium TA1537; 0.5 mM, without S9): 0.00
- Increase in the number of yellow wells compared to the reference level (S. typhimurium TA1537; 1.0 mM, +S9): 1.33
- Increase in the number of yellow wells compared to the reference level (S. typhimurium TA1537; 1.0 mM, without S9): 0.18
- Increase in the number of yellow wells compared to the reference level (S. typhimurium TA1537; 2.0 mM, +S9): 0.00
- Increase in the number of yellow wells compared to the reference level (S. typhimurium TA1537; 2.0 mM, without S9): 0.82
- Tyrosinase inhibition with L-DOPA [%] (tyrosinase from mushroom; L-DOPA): 60.76±1.99% (500 µM)
- IC50 (tyrosinase from mushroom; L-DOPA, read-out: Tyrosinase inhibition with L-DOPA, IC50): 232 µM
- Tyrosinase inhibition with L-tyrosine [%] (tyrosinase from mushroom; L-tyrosine): 79.20±1.20% (500 µM)
- IC50 (tyrosinase from mushroom; L-tyrosine, read-out: Tyrosinase inhibition with L-tyrosine, IC50): 165 µM
- Increase in the number of yellow wells compared to the reference level (S. typhimurium TA100; 0.5 mM, +S9): 0.78
- Increase in the number of yellow wells compared to the reference level (S. typhimurium TA100; 0.5 mM, without S9): 1.53
- Increase in the number of yellow wells compared to the reference level (S. typhimurium TA100; 1.0 mM, +S9): 0.64
- Increase in the number of yellow wells compared to the reference level (S. typhimurium TA100; 1.0 mM, without S9): 0.93
- Increase in the number of yellow wells compared to the reference level (S. typhimurium TA100; 2.0 mM, +S9): 0.31
- Increase in the number of yellow wells compared to the reference level (S. typhimurium TA100; 2.0 mM, without S9): 0.80
- Cytotoxicity study in B16F10 cells % viability ([3]; 150 µM): 73.6%
- Cytotoxicity study in B16F10 cells % viability ([3]; 200 µM): 87.8%
- Cytotoxicity study in B16F10 cells % viability ([3]; 250 µM): 84.4%
- Increase in the number of yellow wells compared to the reference level (S. typhimurium TA98; 0.5 mM, +S9): 0.31
- Increase in the number of yellow wells compared to the reference level (S. typhimurium TA98; 0.5 mM, without S9): 0.27
- Increase in the number of yellow wells compared to the reference level (S. typhimurium TA98; 1.0 mM, +S9): 0.94
- Increase in the number of yellow wells compared to the reference level (S. typhimurium TA98; 1.0 mM, without S9): 1.07
- Increase in the number of yellow wells compared to the reference level (S. typhimurium TA98; 2.0 mM, +S9): 1.04
- Increase in the number of yellow wells compared to the reference level (S. typhimurium TA98; 2.0 mM, without S9): 1.07
- Increase in the number of yellow wells compared to the reference level (E. coli WP2; 0.5 mM, +S9): 0.83
- Increase in the number of yellow wells compared to the reference level (E. coli WP2; 0.5 mM, without S9): 0.50
- Increase in the number of yellow wells compared to the reference level (E. coli WP2; 1.0 mM, +S9): 0.42
- Increase in the number of yellow wells compared to the reference level (E. coli WP2; 1.0 mM, without S9): 1.00
- Increase in the number of yellow wells compared to the reference level (E. coli WP2; 2.0 mM, +S9): 1.42
- Increase in the number of yellow wells compared to the reference level (E. coli WP2; 2.0 mM, without S9): 0.83
- % Viability [mean] ([4]; 100 µM): 96.0%
- % Viability [mean] ([4]; 150 µM): 90.3%
- % Viability [mean] ([4]; 200 µM): 84.0%
